Experimental findings from patent US11040028B2, “Penicinotam derivative, preparation method and use thereof” (OCEAN UNIVERSITY OF CHINA, priority 2017, dated 2021) are described below.

SMILES strings stand for the structures.

Holding throughout (type): cell-based
Assay [1] relates to NF-κB. Put plainly: Immunological activity test: inhibition of NF-κB activity. The note with it: initial concentration of 30 μM; a/b isomers given as first/second symbol; read-out: IC50 (μM), inhibitory activity against NF-κB. The gist of the method:
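NF-κB inhibition was tested at an initial 30 μM compound concentration, with parthenolide as positive control, and IC50 values were determined from follow-up analysis.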

Assay [2] deals with BHK-21 cells. Put plainly: Anti-fibrosis activity test: inhibition of BHK-21 cell proliferation (CCK-8). Particulars: Mesocricetus auratus, BHK-21, 48 h, CCK-8, 48 hours after administration. A digest of the protocol:
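Proliferation inhibition was read as CCK-8 absorbance at 450 nm (2-hour development) relative to untreated blank, with IC50 fitted from the curve. Before that, adhered cells (2×10^4 cells/mL, 24 hours) had 48 hours' treatment at several concentrations, in triplicate, at 37° C/5% CO2; pirfenidone was the reference.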

Assay [3] concerns human hepatic stellate cells LX-2. Put plainly: Anti-fibrosis activity test: inhibition of proliferation of human hepatic stellate cells LX-2 (CCK-8). Particulars: Homo sapiens, 48 h, human hepatic stellate cells LX-2, CCK-8, 48 hours. A digest of the protocol:
(§1)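 Read-out: absorbance at 450 nm after 2 h with CCK-8, following 48 h of compound exposure of adhered cells (2×10^4 cells/mL, 24 h attachment, 37° C, 5% CO2). Proliferation inhibition was taken relative to the blank control, and IC50 values were calculated from it.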

In assay [4] the test system is human embryonic lung fibroblast IMR-90. As to the kind of experiment: Anti-fibrosis activity test: inhibition of proliferation of human embryonic lung fibroblast IMR-90 (CCK-8). The note with it: human embryonic lung fibroblast IMR-90, CCK-8, 48 hours. The gist of the method: as §1
Assay [5] relates to mouse macrophages (RAW264.7). Put plainly: Lipopolysaccharide-induced NO secretion in macrophages (Griess). The note with it: Mus musculus, RAW264.7, 24 h, RAW264.7, LPS 1 μg/ml, a/b isomers given as first/second symbol, read-out: IC50 (μM), inhibition of lipopolysaccharide-induced NO secretion in macrophages. A digest of the protocol: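 Absorbance at 548 nm after Griess reagent addition to culture supernatant gave NO content; inhibition rate was derived relative to blank control. Cells were mouse RAW264.7 macrophages exposed to compounds and 1 μg/ml LPS for 24 hours.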

The test system of assay [6] is cardiac fibroblast RAT-iCell-C002. As to the kind of experiment: Anti-fibrosis activity test: inhibition of proliferation of cardiac fibroblast RAT-iCell-C002 (CCK-8). The note with it: Cardiac fibroblast, 48 h, cardiac fibroblast RAT-iCell-C002, CCK-8, 48 hours. A digest of the protocol: as §1
In assay [7] the test system is human fibrosarcoma cells HT-1080. Put plainly: Anti-fibrosis activity test: inhibition of proliferation of human fibrosarcoma cells HT-1080 (CCK-8). The note with it: Homo sapiens, HT-1080, 48 h, human fibrosarcoma cells HT-1080, CCK-8, 48 hours. The gist of the method:
as §1

For assay [8], the system named is human lung fibroblasts HFL1. Put plainly: Anti-fibrosis activity test: inhibition of proliferation of human lung fibroblasts HFL1 (CCK-8). Particulars: Homo sapiens, HFL1, 48 h, human lung fibroblasts HFL1, CCK-8, 48 hours. A digest of the protocol: as §1
The subject of assay [9] is human dermal fibroblasts CCC-ESF-1. As to the kind of experiment: Anti-fibrosis activity test: inhibition of proliferation of human dermal fibroblasts CCC-ESF-1 (CCK-8). The note with it: Fibroblast; human dermal fibroblasts CCC-ESF-1, CCK-8, 48 hours. A digest of the protocol:
as §1

In the case of `O=C1c2c(n(Cc3c(F)c(F)c(F)c(F)c3F)c3ccccc3c2=O)-c2cccn21` [Compound 586a, 4-((Perfluorophenyl)methyl)-9H-pyrrolizino[1,2-b]quinoline-9,10(4H)-dione], the IC50 in assay [1] was 1 to 10 µM; in assay [2] it was 0.05 to 5 mM; in [3], 0.05 to 5 mM; in assay [4] it was 0.05 to 5 mM; in assay [5], 0.1 to 1 µM; in assay [6], 0.05 to 5 mM. In addition, the IC50 in assay [7], in assay [8] and in assay [9] was 0.05 to 5 mM each time.

As to `O=C1c2c(nc3ccccc3c2OCc2c(F)c(F)c(F)c(F)c2F)-c2cccn21` [Compound 586b, 9-((perfluorophenyl)methoxy)-10H-pyrrolizino[1,2-b]quinolin-10-one], the 50% inhibitory concentration (IC50) is 1 to 10 µM in assay [1]; 0.05 to 5 mM in assay [2]; 0.05 to 5 mM in assay [3]; 0.05 to 5 mM in [4]; 1 to 10 µM in [5]; 0.05 to 5 mM in assay [6]. Also, the 50% inhibitory concentration (IC50) in assay [7], in assay [8] and in assay [9] was 0.05 to 5 mM throughout.

As for `O=C1c2c(n(Cc3cc(F)c(F)c(F)c3F)c3ccccc3c2=O)-c2cccn21` [Compound 587a, 4-(2,3,4,5-Tetrafluorobenzyl)-9H-pyrrolizino[1,2-b]quinoline-9,10(4H)-dione], the IC50 in assay [1] lay in the range of 1 to 10 µM; in assay [2] it was 0.05 to 5 mM; in assay [3], 0.05 to 5 mM; in assay [4], 0.05 to 5 mM; in assay [5], 1 to 10 µM; in [6], 0.05 to 5 mM. Further, the IC50 in assay [7], in [8] and in assay [9] was 0.05 to 5 mM each time.

Consider `O=C1c2c(nc3ccccc3c2OCc2cc(F)c(F)c(F)c2F)-c2cccn21` [Compound 587b, 9-((2,3,4,5-tetrafluorobenzyl)oxy)-10H-pyrrolizino[1,2-b]quinolin-10-one], for which the IC50 in assay [1] is 1 to 10 µM; in assay [2] it was 0.05 to 5 mM; in [3], 0.05 to 5 mM; in assay [4] it was 0.05 to 5 mM; in assay [5], 1 to 10 µM; in assay [6], 0.05 to 5 mM. Moreover, the IC50 in assay [7], in [8] and in assay [9] was 0.05 to 5 mM each time.

Take `O=C1c2c(n(Cc3ccc(F)cc3)c3ccccc3c2=O)-c2cccn21` [Compound 588a, 4-(4-Fluorobenzyl)-9H-pyrrolizino[1,2-b]quinoline-9,10(4H)-dione]: the IC50 in assay [1] lay within 1 to 10 µM; in assay [2] it was 0.05 to 5 mM; in assay [3] it was 0.05 to 5 mM; in assay [4], 0.05 to 5 mM; in [5] it was 1 to 10 µM; in assay [6] it was 0.05 to 5 mM. In addition, the IC50 in assay [7], in [8] and in assay [9] was 0.05 to 5 mM each time.

In the case of `O=C1c2c(nc3ccccc3c2OCc2ccc(F)cc2)-c2cccn21` [Compound 588b, 9-((4-fluorobenzyl)oxy)-10H-pyrrolizino[1,2-b]quinolin-10-one], the IC50 in assay [1] was 1 to 10 µM; in assay [2], 0.05 to 5 mM; in assay [3] it was 0.05 to 5 mM; in assay [4], 0.05 to 5 mM; in assay [5] it was 1 to 10 µM; in assay [6], 0.05 to 5 mM. In addition, the IC50 in assay [7], in assay [8] and in [9] was 0.05 to 5 mM in each case.

In the case of `O=C1c2c(n(Cc3ccc(Cl)cc3)c3ccccc3c2=O)-c2cccn21` [Compound 589a, 4-(4-Chlorobenzyl)-9H-pyrrolizino[1,2-b]quinoline-9,10(4H)-dione], the IC50 in assay [1] is 1 to 10 µM; in assay [2], less than 0.05 mM; in [3], less than 0.05 mM; in assay [4], 0.05 to 5 mM; in [5], 1 to 10 µM; in assay [6], 0.05 to 5 mM. Moreover, the IC50 in [7], in assay [8] and in assay [9] was 0.05 to 5 mM throughout.

As for `O=C1c2c(nc3ccccc3c2OCc2ccc(Cl)cc2)-c2cccn21` [Compound 589b, 9-((4-chlorobenzyl)oxy)-10H-pyrrolizino[1,2-b]quinolin-10-one], the IC50 is 1 to 10 µM in assay [1]; 0.05 to 5 mM in assay [2]; less than 0.05 mM in assay [3]; 0.05 to 5 mM in assay [4]; 1 to 10 µM in assay [5]; 0.05 to 5 mM in assay [6]. The figures for the IC50 in assay [7], in assay [8] and in [9] were less than 0.05 mM, 0.05 to 5 mM and 0.05 to 5 mM, respectively.

Consider `N#Cc1ccc(Cn2c3c(c(=O)c4ccccc42)C(=O)n2cccc2-3)cc1` [Compound 590a, 4-((9,10-Dioxo-9H-pyrrolizino[1,2-b]quinolin-4(10H)-yl)methyl)benzonitrile], for which the IC50 in [1] fell in the range of 1 to 10 µM; in [2], 0.05 to 5 mM; in assay [3], 0.05 to 5 mM; in assay [4] it was 0.05 to 5 mM; in assay [5], 1 to 10 µM; in [6], 0.05 to 5 mM. Also, the IC50 in assay [7], in assay [8] and in [9] was 0.05 to 5 mM throughout.

`N#Cc1ccc(COc2c3c(nc4ccccc24)-c2cccn2C3=O)cc1` [Compound 590b, 4-(((10-oxo-10H-pyrrolizino[1,2-b]quinolin-9-yl)oxy)methyl)benzonitrile]: the IC50 in [1] is 1 to 10 µM; in assay [2], 0.05 to 5 mM; in [3], 0.05 to 5 mM; in assay [4] it was 0.05 to 5 mM; in assay [5] it was 1 to 10 µM; in assay [6] it was 0.05 to 5 mM. The half-maximal inhibitory concentration (IC50) in assay [7], in [8] and in assay [9] was 0.05 to 5 mM each time.

Regarding `O=C1c2c(n(Cc3ccc(C(F)(F)F)cc3)c3ccccc3c2=O)-c2cccn21` [Compound 591a, 4-(4-(Trifluoromethyl)benzyl)-9H-pyrrolizino[1,2-b]quinoline-9,10(4H)-dione], the IC50 in [1] fell in the range of 1 to 10 µM; in assay [2] it was 0.05 to 5 mM; in assay [3] it was 0.05 to 5 mM; in [4], 0.05 to 5 mM; in assay [5], 0.1 to 1 µM; in assay [6], 0.05 to 5 mM. Besides, the IC50 in assay [7], in assay [8] and in [9] was 0.05 to 5 mM each time.

Consider `O=C1c2c(nc3ccccc3c2OCc2ccc(C(F)(F)F)cc2)-c2cccn21` [Compound 591b, 9-((4-(trifluoromethyl)benzyl)oxy)-10H-pyrrolizino[1,2-b]quinolin-10-one], for which the IC50 was in the range of 0.1 to 1 µM in [1]; 0.05 to 5 mM in assay [2]; 0.05 to 5 mM in assay [3]; 0.05 to 5 mM in assay [4]; 1 to 10 µM in assay [5]; 0.05 to 5 mM in assay [6]. The IC50 in assay [7], in assay [8] and in assay [9] was 0.05 to 5 mM each time.

As for `O=C1c2c(n(Cc3ccc(OC(F)(F)F)cc3)c3ccccc3c2=O)-c2cccn21` [Compound 592a, 4-(4-(Trifluoromethoxy)benzyl)-9H-pyrrolizino[1,2-b]quinoline-9,10(4H)-dione], the IC50 in assay [1] is 1 to 10 µM; in assay [2], 0.05 to 5 mM; in assay [3], 0.05 to 5 mM; in [4], 0.05 to 5 mM; in assay [5], 1 to 10 µM; in assay [6], 0.05 to 5 mM. Further, the concentration for half-maximal inhibition (IC50) in assay [7], in assay [8] and in assay [9] was 0.05 to 5 mM in each case.
